From patent publication US20230321054A1, “COMPOSITIONS AND METHODS FOR CANCER AND TUMOR TREATMENT” (Washington University, priority 2022, published 2023)
“Also recorded” adds a separate entry of the source.

Legend:
[1] = system: tumor-liver alanine cycle; assay: [U-13C] glucose isotope tracing / LC/MS metabolomics in drug-treated BRAF/p53 zebrafish (tumor-liver alanine cycling); type: in vivo
Protocol: For all isotope tracing experiments, zebrafish were fasted for 24 h to empty the digestive tract prior to labeling. […] During steady-state labeling experiments, zebrafish were allowed to swim freely in facility water containing the corresponding stable isotopes at the aforementioned concentrations, in addition to 2% penicillin/streptomycin (Life Technologies). For isotope tracing via intraperitoneal injection, zebrafish were injected using a previously described method. Briefly, anesthetized fish were quickly dried and weighed. Zebrafish were then placed into the trough of a wet precut sponge, with the abdomen facing up and gills secured in the trough. A 35G beveled needle and NanoFil 10 µL syringe (World Precision Instruments) was carefully inserted midline near the pelvic girdle, and a [U-^13C] glucose treatment solution (0.5 mg/g) was slowly dispensed. After injection, fish were placed in 28° C. facility water and monitored for recovery from anesthesia (typically 5-10 seconds). Throughout the experiment, each fish was kept in an individual tank to allow for tracking.
To extract metabolites from serum, samples were diluted 1:15 with methanol:acetonitrile:water (2:2:1) at -20° C., vortexed for 10 s, and incubated at -20° C. for 1 h. Following incubation, metabolite extracts were centrifuged at 20,000 g and 4° C. for 10 min, and the supernatant was transferred into an LC/MS vial for same-day analysis. To extract metabolites from zebrafish tissues, frozen samples were ground in 1.5 mL microcentrifuge tubes with a disposable pellet pestle (Fisherbrand). The pellet pestle was placed in liquid nitrogen prior to sample grinding, and the microcentrifuge tube (containing tissue) was submerged in liquid nitrogen for the entirety of tissue grinding. […] The powderized tissue was mixed with -20° C. methanol:acetonitrile:water (2:2:1) and subjected to two cycles of freezing in liquid nitrogen (1 min), thawing in 25° C. water (10 s), sonication (5 min), and vortexing (30 s). Samples were then incubated at -20° C. for 1 h. […]

[2] = system: alanine cycling in WT zebrafish; assay: [U-13C] glucose isotope tracing in vemurafenib-treated WT zebrafish; type: in vivo; conditions: 100 mg/kg/day, 4 consecutive days, vs vehicle
Protocol: For all isotope tracing experiments, zebrafish were fasted for 24 h to empty the digestive tract prior to labeling. To determine the [U-^13C] glucose concentration for isotopic steady-state labeling, concentrations between 5 - 20 mM were tested. […] Similarly, concentrations between 1 - 10 mM of [U-^13C] glutamine were tested for steady-state labeling. […] For ^15N-BCAA labeling experiments, 2 mM each [^15N] leucine, [^15N] isoleucine, and [^15N] valine were concurrently supplemented to facility water. For ^13C-BCAA labeling experiments, 4 mM each of [U-^13C] leucine, [U-^13C] isoleucine, and [U-^13C] valine were concurrently supplemented to facility water. During steady-state labeling experiments, zebrafish were allowed to swim freely in facility water containing the corresponding stable isotopes at the aforementioned concentrations, in addition to 2% penicillin/streptomycin (Life Technologies). For isotope tracing via intraperitoneal injection, zebrafish were injected using a previously described method. Briefly, anesthetized fish were quickly dried and weighed. Zebrafish were then placed into the trough of a wet precut sponge, with the abdomen facing up and gills secured in the trough. […] After injection, fish were placed in 28° C. facility water and monitored for recovery from anesthesia (typically 5-10 seconds). […]

[3] = humans, mice, and zebrafish; cited from earlier work
[4] = system: melanoma tumors of BRAF/p53 zebrafish; assay: Tumor size by digital calipers in melanoma-bearing BRAF/p53 zebrafish; type: in vivo
Protocol: Wild-type (WT) fish were inbred AB strain (sjA). p53-/- and transgenic mitfa-BRAFV600E¬ lines were crossed to produce melanoma-bearing fish (referred to as BRAF/p53), using a previously described method. All fish were reared according to standard laboratory procedures. Fish were kept in an indoor environment at a temperature of 28 ± 1° C. with a 14:10-h light:dark circadian cycle. Both female and male fish were used for experiments at random. Experiments were conducted with age-matched animals (i.e., within 2 weeks of age). To assay tumor growth, melanoma dimensions were measured by using digital calipers. Tumor size was approximated as the volume of a half ellipsoid, ⅔ πabc, where a, b, and c represent the radii of tumor length, width, and height respectively.
Vemurafenib was dissolved in DMSO, and vemurafenib solution or DMSO alone (vehicle) was delivered via intraperitoneal injection following a previously described protocol detailed above. Throughout the experiment, each fish was kept in an individual tank to allow for tracking. […]

[5] = system: alanine aminotransferase (ALT); assay: [U-13C] BCAA labeling and metabolite pool sizes after ALT inhibition in BRAF/p53 zebrafish; type: in vivo; conditions: 600 µM in water, 10 days, vs vehicle
Protocol: For all isotope tracing experiments, zebrafish were fasted for 24 h to empty the digestive tract prior to labeling. To determine the [U-^13C] glucose concentration for isotopic steady-state labeling, concentrations between 5 - 20 mM were tested. […] Similarly, concentrations between 1 - 10 mM of [U-^13C] glutamine were tested for steady-state labeling. […] For ^15N-BCAA labeling experiments, 2 mM each [^15N] leucine, [^15N] isoleucine, and [^15N] valine were concurrently supplemented to facility water. For ^13C-BCAA labeling experiments, 4 mM each of [U-^13C] leucine, [U-^13C] isoleucine, and [U-^13C] valine were concurrently supplemented to facility water. During steady-state labeling experiments, zebrafish were allowed to swim freely in facility water containing the corresponding stable isotopes at the aforementioned concentrations, in addition to 2% penicillin/streptomycin (Life Technologies). For isotope tracing via intraperitoneal injection, zebrafish were injected using a previously described method. Briefly, anesthetized fish were quickly dried and weighed. Zebrafish were then placed into the trough of a wet precut sponge, with the abdomen facing up and gills secured in the trough. A 35G beveled needle and NanoFil 10 µL syringe (World Precision Instruments) was carefully inserted midline near the pelvic girdle, and a [U-^13C] glucose treatment solution (0.5 mg/g) was slowly dispensed. After injection, fish were placed in 28° C. facility water and monitored for recovery from anesthesia (typically 5-10 seconds). Throughout the experiment, each fish was kept in an individual tank to allow for tracking.
To extract metabolites from serum, samples were diluted 1:15 with methanol:acetonitrile:water (2:2:1) at -20° C., vortexed for 10 s, and incubated at -20° C. for 1 h. Following incubation, metabolite extracts were centrifuged at 20,000 g and 4° C. for 10 min, and the supernatant was transferred into an LC/MS vial for same-day analysis. To extract metabolites from zebrafish tissues, frozen samples were ground in 1.5 mL microcentrifuge tubes with a disposable pellet pestle (Fisherbrand). The pellet pestle was placed in liquid nitrogen prior to sample grinding, and the microcentrifuge tube (containing tissue) was submerged in liquid nitrogen for the entirety of tissue grinding. We note that microcentrifuge tubes were labeled and weighed prior to tissue harvest and then weighed again following tissue grinding. The powderized tissue was mixed with -20° C. methanol:acetonitrile:water (2:2:1) and subjected to two cycles of freezing in liquid nitrogen (1 min), thawing in 25° C. water (10 s), sonication (5 min), and vortexing (30 s). Samples were then incubated at -20° C. for 1 h. For every 1 mg of tissue wet weight, 40 µL of extraction solvent was added. Following protein precipitation, tissue extracts were centrifuged at 20,000 g and 4° C. for 10 min, and the supernatant was transferred into an LC/MS vial for same-day analysis.
Ultra-high performance LC (UHPLC)/MS was performed with a Thermo Scientific Vanquish Horizon UHPLC system interfaced with a Thermo Scientific Orbitrap ID-X Tribrid Mass Spectrometer (Waltham, MA). Hydrophilic interaction liquid chromatography (HILIC) was conducted with a SeQuant ZIC-pHILIC guard column (20 mm × 2.1 mm, 5 µm) connected to a SeQuant ZIC-pHILIC column (100 mm × 2.1 mm, 5 µm; EMD Millipore, Burlington, MA). Chromatographic solvents were adapted from a previously described work. […]

[6] = 50 µM in tank water, 6 days, vs DMSO

For `CCN(c1nc(N)c(C(=O)N=C(N)N)nc1Cl)C(C)C` [EIPA, 5-(N-ethyl-N-isopropyl)amiloride], which “alanine labeling in the tumor” value [1, 6] is on record?
Its value is “did not affect”.

And the “hepatic gluconeogenesis (M3 labeling of glucose in the liver and serum)” value [1, 6]?
The value was “did not affect”.

What does the source list for `CCCS(=O)(=O)Nc1ccc(F)c(C(=O)c2c[nH]c3ncc(-c4ccc(Cl)cc4)cc23)c1F` [vemurafenib]?
13C-labeling in metabolites from the circulation, liver, or muscle [2]: No differences; also recorded: does not lead to off-target metabolic effects; toxicity and tolerability [3]: minimal toxicity and high tolerability; reduction of M3 labeling of alanine in the tumor ([1]; 100 mg/kg/day i.p., 4 days, vs vehicle, 10 mM [U-13C] glucose 24 h): ~ 2 fold; tumors reduced in size ([4]; 100 mg/kg/day i.p., after 10 days): > 95%

Which results are given for `N[C@@H](CCl)C(=O)O` [β-chloroalanine, β-chloro-L-alanine]?
BCAAs in serum (pool size) [5]: accumulation; BCAAs in tumor (pool size) [5]: accumulation; contribution that [U-13C] BCAAs made to the TCA cycle in tumors [5]: significantly reduced; levels of alanine in tumor, serum, and liver [5]: decreased; levels of circulating glucose [5]: decreased; reduction in tumor size ([4]; β-chloroalanine in water, 10 days): 50%
